Assay results: PubChem BioAssay (NCI)
Where “and” joins values, the source holds several entries; their conditions need not be identical. Identical values can stand only once.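 Interpolation was linear, between the two tested concentrations surrounding the appropriate level; five concentrations were tested over 48 hours in 96-well plates. GI50 = concentration required for 50% inhibition of growth. The concentration for full growth arrest is given as TGI.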

Columns and labels:
Test in all cases: DTP human tumour cell line panel, 48 h
[1] = system: A549 NSCLC
[2] = system: BT-549 breast
[3] = system: HOP-62 NSCLC
[4] = system: HT29 colon
[5] = system: MDA-MB-435
[6] = system: RPMI-8226 leukemia
[7] = system: SF-268 CNS
[8] = system: SK-MEL-28 melanoma
[9] = system: NCI/ADR-RES ovarian
[10] = system: HL-60(TB) leukemia

## CC1=C(C(=O)OC(C)(C)C)C(c2ccc([N+](=O)[O-])cc2)C(C(=O)OC(C)(C)C)=C(C)N1
[1]
  TGI: 52.3 µM
[2]
  TGI: 44.1 µM
[3]
  TGI: 40.8 µM
[4]
  TGI: 48.8 µM
[5]
  TGI: 57.9 µM
[6]
  TGI: 54 µM
[7]
  TGI: 56.4 µM
[8]
  TGI: 43.4 µM

## COC1=C(C)C(=O)C2=C(C1=O)C1C3CC4=C(C(=O)C(OC)=C(C)C4=O)C(CNC(=O)C(C)=O)N3C(C#N)C(C2)N1C (stereo not drawn)
[2]
  TGI: 0.0017 µM
[5]
  GI50: 0.00034 µM
  TGI: 0.00124 µM and 0.00553 µM
[9]
  GI50: 1.16 µM
  TGI: 4.05 µM and 2.76 µM
[8]
  GI50: 0.000169 µM

## Cn1c(=O)c2c(n(C)c1=O)n1c(=O)c3ccccc3nc1n2C
[1]
  TGI: > 100 µM
[2]
  TGI: > 100 µM
[3]
  TGI: > 100 µM
[4]
  TGI: > 100 µM
[5]
  TGI: > 100 µM
[9]
  TGI: > 100 µM
[6]
  TGI: > 100 µM
[7]
  TGI: > 100 µM
[8]
  TGI: > 100 µM

## COc1ccc(/[N+]([O-])=C/c2ccccc2OC(=S)S)cc1
[1]
  TGI: > 100 µM
[2]
  TGI: 66.6 µM
[10]
  TGI: 70.8 µM
[4]
  TGI: 49.7 µM
[5]
  TGI: 55.7 µM
[9]
  TGI: 94.9 µM
[6]
  TGI: 61 µM
[7]
  TGI: > 100 µM
[8]
  TGI: > 100 µM

## O=C(Cn1c(-c2ccccc2)cc2ccccc21)N1CCOCC1
[1]
  TGI: > 100 µM
[10]
  TGI: > 100 µM
[3]
  TGI: > 100 µM
[4]
  TGI: > 100 µM
[5]
  TGI: > 100 µM
[9]
  TGI: > 100 µM
[6]
  TGI: > 100 µM
[7]
  TGI: > 100 µM
[8]
  TGI: > 100 µM

## O=C(Nc1nc2ccc([N+](=O)[O-])cc2s1)c1cc([N+](=O)[O-])ccc1Cl
[2]
  TGI: 6.83 µM
[3]
  TGI: 10.3 µM
[4]
  TGI: 6.03 µM
[5]
  TGI: 16.4 µM
[9]
  TGI: 8.23 µM
[6]
  TGI: 9.8 µM
[7]
  TGI: 11.7 µM

## COC(=O)C1=C(C)C(=O)C2(CCCCCC2C(=O)OC)C1 (stereo not drawn)
[1]
  TGI: > 100 µM
[10]
  TGI: > 100 µM
[3]
  TGI: > 100 µM
[4]
  TGI: > 100 µM
[6]
  TGI: > 100 µM
[7]
  TGI: > 100 µM
[8]
  TGI: > 100 µM

## COc1ccc(-c2cc(=O)c3cc(OC)c(OC)cc3[nH]2)cc1OC
[1]
  TGI: > 100 µM
[2]
  TGI: > 100 µM
[3]
  TGI: > 100 µM
[4]
  TGI: > 100 µM
[5]
  TGI: > 100 µM
[9]
  TGI: > 100 µM
[6]
  TGI: > 100 µM
[7]
  TGI: > 100 µM
[8]
  TGI: > 100 µM

## COC(=O)C1CCC(=S)N1C(C)=O (stereo not drawn)
[1]
  TGI: > 100 µM
[2]
  TGI: > 100 µM
[3]
  TGI: > 100 µM
[4]
  TGI: > 100 µM
[5]
  TGI: > 100 µM
[9]
  TGI: > 100 µM
[6]
  TGI: > 100 µM
[7]
  TGI: > 100 µM
[8]
  TGI: > 100 µM

## CC(=O)OCc1cc2c(s1)C(=O)c1sccc1C2=O
[1]
  TGI: 0.368 µM
[4]
  TGI: 1.43 µM
[5]
  TGI: 0.0322 µM
[9]
  TGI: 0.413 µM
[7]
  TGI: 0.417 µM
[8]
  TGI: 0.0721 µM

## O=C(C[N+]1(c2ccccc2)CCOCC1)c1ccccc1
[1]
  TGI: > 100 µM
[2]
  TGI: > 100 µM
[3]
  TGI: > 100 µM
[4]
  TGI: > 100 µM
[5]
  TGI: > 100 µM
[9]
  TGI: > 100 µM
[7]
  TGI: > 100 µM
[8]
  TGI: 0.0908 µM

## Cc1cccc2c1Oc1ncccc1C2NC(=O)CN(C)C (stereo not drawn)
[1]
  TGI: > 10 µM
[2]
  TGI: > 10 µM
[10]
  TGI: > 10 µM
[4]
  TGI: > 10 µM
[5]
  TGI: > 10 µM
[9]
  TGI: > 10 µM
[7]
  TGI: > 10 µM

## CC(=O)Nc1ccc(C(=O)NN2C(=O)CSC2c2ccccc2)cc1 (stereo not drawn)
[1]
  TGI: > 100 µM
[2]
  TGI: 83 µM
[3]
  TGI: > 100 µM
[4]
  TGI: > 100 µM
[5]
  TGI: > 100 µM
[9]
  TGI: > 100 µM
[6]
  TGI: > 100 µM
[7]
  TGI: > 100 µM
[8]
  TGI: > 100 µM
